In patent publication US8598313B2, “Compositions for ameliorating cell proliferative disorders and methods of making and using them” (priority 2010, dated 2013):

Columns and labels:
cancer cell lines = conditions: cytotoxicity SAR; cited from earlier work
[1] = test system: NCI H-460 human lung tumor cells; experiment: Cytotoxicity in NCI H-460 human lung tumor cells, MTT reduction; format: cell-based
Procedure: Cytotoxicity was measured in NCI H-460 human lung tumor cells with cell viability being determined by MTT reduction.^[23] Cells were seeded in 96-well plates at 6000 cells/well in 180 μL of medium. After 24 h, the test chemicals were dissolved in DMSO and diluted into medium without fetal bovine serum and then added at […]. DMSO was less than 0.5% of the final concentration. After 48 h, the medium was removed and cell viability determined.

Row | Compound | loss of activity compared to apratoxin A (cancer cell lines) | activity compared to apratoxin A (cancer cell lines) | also measured
1 | (E)-34,35-dehydro-apratoxin A | 72-230 fold |  | 
2 | CC[C@H](C)[C@H]1C(=O)N2CCC[C@H]2C(=O)O[C@H](C(C)C)C[C@@H](C)C[C@H](O)[C@H](C)C2=N[C@@H](/C=C(\C)C(=O)N[C@@H](Cc3ccc(OC)cc3)C(=O)N(C)[C@@H](C)C(=O)N1C)CS2 [apratoxin C] | 2 fold |  | 
3 | apratoxin E |  | only a modest loss of activity | 
4 | COc1ccc(C[C@@H]2NC(=O)/C(C)=C/C3CSC(=N3)[C@@H](C)[C@@H](O)C[C@H](C)C[C@@H](C(C)(C)C)OC(=O)[C@H](C)N(C)C(=O)[C@H](C(C)C)N(C)C(=O)[C@H](C)N(C)C2=O)cc1 (stereo partly shown) [apratoxin G] |  |  | IC50 ([1]; H-460 cancer cells, MTT, 48 h): 14 nM; reduction in activity compared to apratoxin F ([1]; N-methyl isoleucine exchanged for N-methyl valine): 7 fold
5 | CC[C@H](C)[C@H]1C(=O)N2CCC[C@H]2C(=O)O[C@H]([C@@H](C)CC(C)(C)C)C[C@@H](C)C[C@H](O)[C@H](C)C2=N[C@@H](/C=C(\C)C(=O)N[C@@H](Cc3ccc(OC)cc3)C(=O)N(C)[C@@H](C)C(=O)N1C)CS2 [apratoxin D] |  | roughly equivalent activity | 
6 | CC[C@H](C)[C@@H]1NC(=O)[C@H](C)N(C)C(=O)[C@H](Cc2ccc(OC)cc2)NC(=O)/C(C)=C/[C@H]2CSC(=N2)[C@@H](C)[C@@H](O)C[C@H](C)C[C@@H](C(C)(C)C)OC(=O)[C@@H]2CCCN2C1=O [apratoxin B] | 30 to 40 fold |  | 
